pIC50: −log10 of the molar value.
Experiments:
[1] = target: Isocitrate dehydrogenase [NADP] cytoplasmic (Homo sapiens, UniProt O75874, R132C); test: Inhibition of IDH1 R132C mutant (unknown origin) assessed as reduction in NADPH consumption using alpha-KG as substrate incubated for 5 mins by diaphorase/resazurin-coupled system
[2] = target: Isocitrate dehydrogenase [NADP] cytoplasmic (Homo sapiens, UniProt O75874, R132H); test: Inhibition of IDH1 R132H mutant (unknown origin) assessed as reduction in NADPH consumption using alpha-KG as substrate incubated for 5 mins by diaphorase/resazurin-coupled system
[3] = test system: Isocitrate dehydrogenase [NADP] cytoplasmic (Homo sapiens), O75874 [R132C]; test: Inhibition of IDH1 R132C mutant (unknown origin) assessed as reduction in NADPH consumption using alpha-KG as substrate at 38 uM incubated for 5 mins by diaphorase/resazurin-coupled system relative to control
[4] = test system: Isocitrate dehydrogenase [NADP] cytoplasmic (Homo sapiens), O75874 [R132H]; test: Inhibition of IDH1 R132H mutant (unknown origin) assessed as reduction in NADPH consumption using alpha-KG as substrate at 38 uM incubated for 5 mins by diaphorase/resazurin-coupled system relative to control
Isocitrate dehydrogenase [NADP] cytoplasmic (Homo sapiens), O75874 [R132H], sequence (O75874 whole entry R132H): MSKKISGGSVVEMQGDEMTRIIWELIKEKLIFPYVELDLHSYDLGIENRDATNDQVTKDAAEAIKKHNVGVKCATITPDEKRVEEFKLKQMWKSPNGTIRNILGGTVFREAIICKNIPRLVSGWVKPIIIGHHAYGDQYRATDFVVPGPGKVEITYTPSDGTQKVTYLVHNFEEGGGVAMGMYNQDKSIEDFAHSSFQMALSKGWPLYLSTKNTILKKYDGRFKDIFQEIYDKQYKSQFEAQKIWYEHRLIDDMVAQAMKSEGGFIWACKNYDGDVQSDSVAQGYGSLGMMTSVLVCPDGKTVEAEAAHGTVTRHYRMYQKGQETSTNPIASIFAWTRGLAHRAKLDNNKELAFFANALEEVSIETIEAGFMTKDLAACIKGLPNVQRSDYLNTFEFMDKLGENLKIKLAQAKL

Isocitrate dehydrogenase [NADP] cytoplasmic (Homo sapiens), O75874 [R132C], sequence (O75874 whole entry R132C): as the sequence (O75874 whole entry R132H) above, with H132C counted along it
Isocitrate dehydrogenase [NADP] cytoplasmic (Homo sapiens, UniProt O75874, R132H), sequence (O75874 2-414 R132H limits assumed): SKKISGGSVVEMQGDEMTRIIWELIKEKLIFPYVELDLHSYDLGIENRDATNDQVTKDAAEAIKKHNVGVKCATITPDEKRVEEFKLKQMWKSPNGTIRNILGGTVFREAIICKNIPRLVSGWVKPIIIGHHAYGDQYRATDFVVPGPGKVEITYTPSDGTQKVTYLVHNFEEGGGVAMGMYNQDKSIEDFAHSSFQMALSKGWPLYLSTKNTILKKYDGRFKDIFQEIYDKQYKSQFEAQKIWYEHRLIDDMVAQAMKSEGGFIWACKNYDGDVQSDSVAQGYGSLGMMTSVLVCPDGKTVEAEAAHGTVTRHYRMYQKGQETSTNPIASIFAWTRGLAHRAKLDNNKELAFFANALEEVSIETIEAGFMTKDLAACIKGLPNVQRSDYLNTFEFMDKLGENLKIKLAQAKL
Isocitrate dehydrogenase [NADP] cytoplasmic (Homo sapiens, UniProt O75874, R132C), sequence (O75874 2-414 R132C limits assumed): as the sequence (O75874 2-414 R132H limits assumed) above, with H131C counted along it

## COc1ccc(OC)c(-n2c3c(cc(-c4ncc(-c5ccc(Cl)cc5)s4)c2=O)C(=O)CC(C)(C)C3)c1
[1]
  pIC50: < 4.42
[2]
  pIC50: < 4.42

## COc1ccc(OC)c(-n2c3c(cc(-c4cccc(-c5ccc(Cl)cc5)c4)c2=O)C(=O)CC(C)(C)C3)c1
[1]
  pIC50: < 4.42
[2]
  pIC50: < 4.42

## CCc1cccc(CC)c1-n1c(C=C(C)C)c(C(=O)N2CCNC(C#N)C2)cc(-c2nc(-c3ccc(Cl)cc3)cs2)c1=O (stereo unspecified)
[1]
  pIC50: 7.25
[2]
  pIC50: 6.80

## COc1cc(C(=O)O)ccc1-n1c2c(cc(-c3nc(-c4ccc(Cl)cc4)cs3)c1=O)C(=O)CC(C)(C)C2
[3]
  inhibition: 43%

## Cc1ccccc1-n1c2c(cc(-c3nc(-c4ccc(Cl)cc4)cs3)c1=O)C(=O)CC(C)(C)C2
[4]
  inhibition: 74%
[3]
  inhibition: 64%

## CC1(C)CC(=O)c2cc(-c3nc(-c4ccc(Cl)cc4)cs3)c(=O)n(-c3ccccc3)c2C1
[4]
  inhibition: 47%
[3]
  inhibition: 38%

## CC1(C)CC(=O)c2cc(-c3nc(-c4ccc(Cl)cc4)cs3)c(=O)n(-c3ccccc3F)c2C1
[4]
  inhibition: 65%
[3]
  inhibition: 49%

## COc1ccc(OC)c(-n2c3c(cc(-c4c[nH]c(-c5ccccc5)n4)c2=O)C(=O)CC(C)(C)C3)c1
[4]
  inhibition: 75%
[3]
  inhibition: 39%
[2]
  pIC50: 5.68

## COc1ccc(OC)c(-n2c3c(cc(-c4ccn(-c5ccccc5)n4)c2=O)C(=O)CC(C)(C)C3)c1
[4]
  inhibition: 84%
[3]
  inhibition: 46%
[2]
  pIC50: 5.51

## CC(C)c1ccccc1-n1c2c(cc(-c3nc(-c4ccc(Cl)cc4)cs3)c1=O)C(=O)CC(C)(C)C2
[4]
  inhibition: 62%
[3]
  inhibition: 61%

## COc1ccc(OC)c(-n2c3c(cc(-c4nc(-c5ccc(Cl)cc5)cs4)c2=O)C(=O)CNC3)c1
[4]
  inhibition: 75%
[3]
  inhibition: 32%
[2]
  pIC50: 5.10

## COc1ccc(OC)c(-n2c3c(cc(-c4nc(-c5ccc(Cl)cc5)cs4)c2=O)C(=O)CC3)c1
[4]
  inhibition: 38%
[3]
  inhibition: 29%

## CCc1cccc(CC)c1-n1c(C)c(C(=O)NC)cc(-c2nc(-c3ccc(Cl)cc3)cs2)c1=O
[4]
  inhibition: 87%
[3]
  inhibition: 64%
[2]
  pIC50: 5.82

## CCc1cccc(CC)c1-n1c(C)c(C(=O)O)cc(-c2nc(-c3ccc(Cl)cc3)cs2)c1=O
[4]
  inhibition: 102%
[3]
  inhibition: 72%
[2]
  pIC50: 5.14

## CC1(C)CC(=O)c2cc(-c3nc(-c4ccc(Cl)cc4)cs3)c(=O)n(-c3ccccc3O)c2C1
[4]
  inhibition: 71%
[3]
  inhibition: 61%

## CC1(C)CC(=O)c2cc(-c3nc(-c4ccc(Cl)cc4)cs3)c(=O)n(-c3ccccc3C(F)(F)F)c2C1
[4]
  inhibition: 96%
[3]
  inhibition: 87%
[2]
  pIC50: 6.57

## CC1(C)CC(=O)c2cc(-c3nc(-c4ccc(Cl)cc4)cs3)c(=O)n(-c3ccccn3)c2C1
[4]
  inhibition: 47%
[3]
  inhibition: 39%

## CC1(C)CC(=O)c2cc(-c3nc(-c4ccc(Cl)cc4)cs3)c(=O)n(-c3sccc3C#N)c2C1
[4]
  inhibition: 100%
[3]
  inhibition: 90%
[2]
  pIC50: 6.59

## CNc1ccccc1-n1c2c(cc(-c3nc(-c4ccc(Cl)cc4)cs3)c1=O)C(=O)CC(C)(C)C2
[4]
  inhibition: 59%
[3]
  inhibition: 43%

## COc1c(C(=O)O)cccc1-n1c2c(cc(-c3nc(-c4ccc(Cl)cc4)cs3)c1=O)C(=O)CC(C)(C)C2
[4]
  inhibition: 82%
[3]
  inhibition: 65%
[2]
  pIC50: 4.85

## CCc1cccc(CC)c1-n1c(C)c(C(=O)Nc2ccccc2)cc(-c2nc(-c3ccc(Cl)cc3)cs2)c1=O
[4]
  inhibition: 40%
[3]
  inhibition: 69%

## COc1ccccc1-n1c2c(cc(-c3nc(-c4ccc(Cl)cc4)cs3)c1=O)C(=O)CC(C)(C)C2
[4]
  inhibition: 76%
[3]
  inhibition: 65%
[2]
  pIC50: 5.62

## CCc1cccc(CC)c1-n1c(C)c(C(=O)N2CCCCC2)cc(-c2nc(-c3ccc(Cl)cc3)cs2)c1=O
[4]
  inhibition: 51%
[3]
  inhibition: 65%

## CCc1cccc(CC)c1-n1c(C)c(C(=O)NC(C)C)cc(-c2nc(-c3ccc(Cl)cc3)cs2)c1=O
[4]
  inhibition: 47%
[3]
  inhibition: 54%
[2]
  pIC50: 5.55

## CC1(C)CC(=O)c2cc(-c3nc(-c4ccc(Cl)cc4)cs3)c(=O)n(-c3ccccc3OCc3ccccc3)c2C1
[4]
  inhibition: 38%
[3]
  inhibition: 61%

## COc1ccc(OC)c(-n2c(=O)c(-c3nc(-c4ccc(Cl)cc4)cs3)cc3c(O)cccc32)c1
[4]
  inhibition: 35%
[3]
  inhibition: 36%

## COc1ccc(OC)c(-n2c3c(cc(-c4cc(-c5ccccc5)[nH]n4)c2=O)C(=O)CC(C)(C)C3)c1
[4]
  inhibition: 47%
[3]
  inhibition: 41%

## CC1(C)CC(=O)c2cc(-c3nc(-c4ccc(Cl)cc4)cs3)c(=O)n(-c3ccccc3Oc3ccccc3)c2C1
[4]
  inhibition: 30%
[3]
  inhibition: 60%

## COc1cccc(-n2c3c(cc(-c4nc(-c5ccc(Cl)cc5)cs4)c2=O)C(=O)CC(C)(C)C3)c1OC
[4]
  inhibition: 64%
[3]
  inhibition: 35%

## COc1ccc(OC)c(-n2c3c(cc(-c4nc(-c5ccccc5)cs4)c2=O)C(=O)CC(C)(C)C3)c1
[4]
  inhibition: 77%
[3]
  inhibition: 59%
[2]
  pIC50: 5.92

## CC(C)n1c2c(cc(-c3nc(-c4ccc(Cl)cc4)cs3)c1=O)C(=O)CC(C)(C)C2
[4]
  inhibition: 31%
[3]
  inhibition: 33%

## CC1(C)CC(=O)c2cc(-c3nc(-c4ccc(Cl)cc4)cs3)c(=O)n(-c3ccccc3-c3ccccc3)c2C1
[4]
  inhibition: 59%
[3]
  inhibition: 67%

## COc1ccc(OC)c(-n2c3c(cc(-n4ccc(-c5ccccc5)n4)c2=O)C(=O)CC(C)(C)C3)c1
[4]
  inhibition: 71%
[3]
  inhibition: 41%

## COc1ccc(OC)c(-n2c3c(cc(-c4nc(-c5ccc(Cl)cc5)cs4)c2=O)C(=O)NCC3)c1
[4]
  inhibition: 84%
[3]
  inhibition: 65%
[2]
  pIC50: 5.64

## COc1cccc(C)c1-n1c2c(cc(-c3nc(-c4ccc(Cl)cc4)cs3)c1=O)C(=O)CC(C)(C)C2
[4]
  inhibition: 81%
[3]
  inhibition: 72%
[2]
  pIC50: 5.68

## CN(C)c1ccccc1-n1c2c(cc(-c3nc(-c4ccc(Cl)cc4)cs3)c1=O)C(=O)CC(C)(C)C2
[4]
  inhibition: 56%
[3]
  inhibition: 57%

## COc1ccccc1Cn1c2c(cc(-c3nc(-c4ccc(Cl)cc4)cs3)c1=O)C(=O)CC(C)(C)C2
[4]
  inhibition: 61%
[3]
  inhibition: 53%

## CC1(C)CC(=O)c2cc(-c3nc(-c4ccc(Cl)cc4)cs3)c(=O)n(-c3ccccc3N)c2C1
[4]
  inhibition: 57%
[3]
  inhibition: 42%

## COc1ccc(OC)c(-n2c3c(cc(-c4nc(-c5ccc(Cl)cc5)cs4)c2=O)CCC(C)(C)C3)c1
[4]
  inhibition: 87%
[3]
  inhibition: 64%
[2]
  pIC50: 5.44

## COc1ccc(OC)c(-n2c3c(cc(-n4cnc(-c5ccccc5)c4)c2=O)C(=O)CC(C)(C)C3)c1
[4]
  inhibition: 59%
[3]
  inhibition: 44%

## CCc1cccc(CC)c1-n1c(C)c(C(=O)NC2CCCCC2)cc(-c2nc(-c3ccc(Cl)cc3)cs2)c1=O
[3]
  inhibition: 31%
[2]
  pIC50: < 4.42

## CC1(C)CC(=O)c2cc(-c3nc(-c4ccc(Cl)cc4)cs3)c(=O)n(-c3ccccc3Cl)c2C1
[4]
  inhibition: 83%
[3]
  inhibition: 70%
[2]
  pIC50: 5.89

## CCc1cccc(CC)c1-n1c(C)c(C(=O)NCc2ccccc2)cc(-c2nc(-c3ccc(Cl)cc3)cs2)c1=O
[3]
  inhibition: 41%
[2]
  pIC50: < 4.42

## COc1ccc(OC)c(-n2c3c(cc(-c4cccc(-c5ccc(Cl)cc5)n4)c2=O)C(=O)CC(C)(C)C3)c1
[4]
  inhibition: 67%
[3]
  inhibition: 46%

## COc1ccc(OC)c(-n2c3c(cc(-c4nc(-c5ccc(Cl)cc5)cs4)c2=O)C(=O)CCC3)c1
[4]
  inhibition: 62%
[3]
  inhibition: 43%

## CCc1cccc(CC)c1-n1c(C)c(C(=O)NC(C)(C)C)cc(-c2nc(-c3ccc(Cl)cc3)cs2)c1=O
[4]
  inhibition: 65%
[3]
  inhibition: 49%

— ChEMBL document CHEMBL4811250, “Discovery and Optimization of 2H-1λ2-Pyridin-2-one Inhibitors of Mutant Isocitrate Dehydrogenase 1 for the Treatment of Cancer” (J Med Chem, 2021)
